Laboratory results as given in publication doi:10.1101/718940v1 (biorxiv, 2019).

Target: TENT4B (PAPD5) (Homo sapiens, UniProt Q8NDF8)
Test: ATP depletion polyadenylation assay
Type: biochemical

TENT4B (PAPD5), sequence (Q8NDF8 whole entry): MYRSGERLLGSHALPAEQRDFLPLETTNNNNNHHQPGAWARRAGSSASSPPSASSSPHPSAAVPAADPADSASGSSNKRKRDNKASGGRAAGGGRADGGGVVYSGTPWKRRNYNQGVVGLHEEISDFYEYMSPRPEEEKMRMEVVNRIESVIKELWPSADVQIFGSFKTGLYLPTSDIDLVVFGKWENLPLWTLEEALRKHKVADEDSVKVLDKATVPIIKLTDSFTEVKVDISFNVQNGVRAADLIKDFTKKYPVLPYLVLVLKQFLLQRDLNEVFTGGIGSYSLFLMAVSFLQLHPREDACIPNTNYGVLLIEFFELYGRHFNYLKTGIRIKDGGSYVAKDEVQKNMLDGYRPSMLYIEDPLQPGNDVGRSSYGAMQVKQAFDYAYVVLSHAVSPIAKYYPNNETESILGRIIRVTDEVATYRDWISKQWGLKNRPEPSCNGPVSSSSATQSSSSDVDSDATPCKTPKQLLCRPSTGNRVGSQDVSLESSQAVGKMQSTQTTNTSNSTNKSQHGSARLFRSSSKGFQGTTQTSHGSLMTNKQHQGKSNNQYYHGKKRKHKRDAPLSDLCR

| IC50 | Structure (SMILES) |
| --- | --- |
| 1.3 nM | COCCCOc1cc2c(cc1OC)-c1cc(=O)c(C(=O)O)cn1[C@H](C(C)C)C2 [RG7834] |
| 76 nM | COCCCOc1cc2c(cc1OC)-c1cc(=O)c(C(=O)O)cn1[C@@H](C(C)C)C2 [RO0321] |
